Measurements taken from patent US6379900B1, “Compositions and methods of use of 8-nitroguanine” (Conceptual Mindworks, Inc., priority 2000, dated 2002).

What was measured:
[1] = test system: supercoiled pUC19 plasmid DNA; experiment: Conversion of supercoiled plasmid DNA to open circles (single-stranded DNA breaks) by peroxynitrite; type: biochemical, E coli
Description: E coli strain JM109 containing plasmid DNA (pUC19) was grown in 2 ml of M9 media to which 24 μl of 2.5 mg/ml ampicillin was added. Following incubation for approximately 8 hours, the culture was transferred to 50 ml of M9 media containing ampicillin. The following day, 25 ml of the overnight culture was used to inoculate 500 ml of M9 media containing ampicillin. When the optical density at 600 nm of the bacterial culture reached between 0.6 and 0.8 O.D., 50 mg of chloramphenicol, dissolved in 1 ml of absolute ethanol, was added to the culture and the culture was incubated overnight. The next morning, cells were harvested by centrifugation. Plasmid DNA was isolated using a Promega Wizard MaxiPrep Kit. Cells were resuspended in resuspension solution, and lysis buffer was added. The buffer was neutralized after 20 min, the solution was centrifuged and the supernatant collected. To the supernatant was added 0.5 volumes of isopropanol, which caused the DNA to precipitate. […] After removing the fine particles the DNA was ready for use. Its concentration was measured by absorbance at 260 nm (0.2 OD units=10 μg/ml). Plasmid DNA was analyzed by electrophoresis in TAE buffer using a 1% agarose gel. […] DNA was analyzed as described above. The effect of peroxynitrite concentration on the conversion of supercoils to open circles was determined at pH 5, 6, 7, 8, and 9. […] DNA was analyzed as described above. […]

Calf Thymus DNA = experiment: Viscosity studies of DNA exposed to peroxynitrite (depurination and strand breakage); type: biochemical
Source text: As the degree of DNA damage increases, the likelihood of two single stranded breaks occurring within a few bases on the opposite strands of double-stranded DNA also increases. Double-stranded DNA breaks result in a decrease in the length of the DNA molecule, detectable as a decreased viscosity of linear double-stranded DNA. This method was also used to assay for depurination and DNA strand breakage. Stock solutions of Sigma Calf Thymus DNA were made by dissolving DNA in 0.1 M Na2HPO4, pH 8, 0.1 M sodium cacodylate, pH 5, 0.1 M Tris, pH 8, and 0.1 M borate, pH 8. The final volume for all viscosity experiments was 40 ml and the DNA concentration was 420 μg/ml. […] The data was recorded as the relative viscosity and specific viscosity of the solution.

[2] = cited from earlier work

Row | Compound | reduction in DNA supercoiling ([1]; minimum observed under the conditions of the study, constant peroxynitrite concentration) | conversion of supercoiled plasmid DNA to open circles ([1]; pH 4 to 10, 30 minutes at room temperature) | activation energy of the depurination reaction (formation of single-stranded DNA nicks) (Calf Thymus DNA; Arrhenius analysis) | viscosity of DNA solution with time of exposure (Calf Thymus DNA; all pH values, 37° C., within the first two hours of exposure) | pKa ([2]; acid form of peroxynitrite) | half life ([2]; pH 7.4)
1 | O=NOO [peroxynitrite] | ≥ 45% | effective at converting supercoiled plasmid DNA to open circles at all pHs | 917 Joules/mole | Viscosity decreased |  | 
2 | O=NOO [peroxynitrous acid] |  |  |  |  | 6.8 | 1.9 s
